{
  "source": "paper PMC11213822",
  "about": "“Copper resistance in the cold: Genome analysis and characterisation of a PIB‐1 ATPase in Bizionia argentinensis” (Environmental Microbiology Reports, 2024)",
  "key": {"BaCopA1": {"target": "T1, BaCopA1 (Bizionia argentinensis, UniProt G2EDW3)", "T1 construct": "gene BZARG_1779; C-terminal TEV site-GFP-His tag not removed (tag printed as His6 and his8); expressed in S. cerevisiae FGY217, detergent-solubilised, Ni-NTA purified in C12E10", "assay": "time course of Pi release, malachite green", "type": "biochemical", "conditions": "2.0 mM ATP, 2.0 mM MgCl2, 0.1 mM CuSO4, 20 mM cysteine, pH 8.0, 5 °C; 10 μM vanadate"}, "purified protein": {"substrate": "Nc1ncnc2c1ncn2[C@@H]1O[C@H](COP(=O)(O)OP(=O)(O)OP(=O)(O)O)[C@@H](O)[C@H]1O", "assay": "purified protein", "conditions": "free Mg2+ 0.25 mM, 0.1 mM CuSO4, 20 mM cysteine, asolectin/C12E10, pH 8.0, 5 °C"}},
  "data": [
    {"molecule": "[O]=[V]([OH])([OH])[OH]", "note": "[vanadate]", "values": [
      {"measurement": "inhibition at 10 μM", "setting": "BaCopA1", "value": "an inhibitory effect of ATPase activity occurs with the addition of vanadate"}
    ]},
    {"molecule": "BaCopA1 (Bizionia argentinensis JUB59) (protein) MTCNGCRSHVEEILSKVKYVLKASVDLEKEEATIEMESHIPIEKFQNALKNDGGRYSIHKNPLPGSPKGRSNKTDKSKSEKSPLRGLGDTFYCPMHCEGDKIYDKPGDCPVCGMDLVEEQNLSTSNSEQWTCPMHPEVVKDEAGPCPICGMDLVPMQADSSAEEKTYKKLLKKFWIASIFTLPIFIMAMSEMLTNNPLYDIMDQKNWNWVQFALSIPVVFYATWMFFERAYKSIKTWNLNMFTLIGIGAGVAWLFSVFGMFFPDVFPSQFRSESGAVHVYFEAATVILTLVLLGQLLEARAHSKTNSAVKELLKLAPNKATKVVNGEDVEVSIDNIELNDILKVKPGDKIPVDGVITEGVTTIDESMITGEPVPVDKTEGDKVSSGTINGNQSFLMKAEKVGSHTLLSQIIHMVNTASRSRAPIQNLADKVSGYFVPVVVLISLITFAVWAIWGPEPAYVYALVNAIAVLIIACPCALGLATPMSVMVGVGKGAQNGVLIKNAEALEKLDKVDTLIVDKTGTITEGKPTVEKMGAFSDVFSESDVLQYIVSLNSNSEHPLAEATVKYGKEQKAEIIKSDAFSAVTGKGVEATINNKKVALGNPKMMEYAQAEITSQMQDEAKTYQKQGKTVSYLAIDKIVIGYVVIGDKIKATSAKAIKELQDKGIAVIMLTGDNHDTAQAVASELNLADFKASMLPEDKLKEVEKLQKEGKVVAMAGDGINDAPALAKSDVGIAMGTGTDVAIESAMITLVKGDLNGIVKAKHLSHAVMKNIKQNLFFALIYNTLGVPIAAGVLFPIFGILLSPMIAALAMSFSSVSVIANALRLRTIKI", "values": [
      {"measurement": "Km", "setting": "purified protein", "value": "150 ± 30", "unit": "µM"}
    ]}
  ]
}
